Data reported in publication PMC8855368 (Journal of medicinal chemistry, 2019).

Key:
HCT116 = assay: MTT cell viability assay, HCT116; type: cell-based; settings: read-out: IC50-MTT HCT116; HCT116, 72 h; values of two independent experiments
[1] = Stability in 20% acetonitrile/PBS buffer by LC–MS; type: physicochemical; settings: room temperature overnight
GSTO1–1 = target: T1, GSTO1–1 (Homo sapiens, UniProt P78417); settings: GSTO1–1 binding assay
T1 sequence (P78417 1-241): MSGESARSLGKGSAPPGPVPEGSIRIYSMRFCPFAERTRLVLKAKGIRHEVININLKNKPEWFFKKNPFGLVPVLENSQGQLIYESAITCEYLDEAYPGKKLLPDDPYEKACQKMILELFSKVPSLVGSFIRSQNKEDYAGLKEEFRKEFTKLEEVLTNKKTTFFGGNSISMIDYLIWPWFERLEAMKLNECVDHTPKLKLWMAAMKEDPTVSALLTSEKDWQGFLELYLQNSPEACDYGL

| Structure (SMILES) | GSTO1–1 binding activity (in words) (GSTO1–1) | also measured |
| --- | --- | --- |
| C=CC(=O)Nc1nc(-c2ccc(O)cc2)cs1 [Compound 25, N-(4-(4-Hydroxylphenyl)thiazol-2-yl)acrylamide] | – | IC50 (HCT116): 7.1 µM |
| C=CC(=O)N(Cc1cc(C)no1)c1nc(-c2ccccc2O)cs1 [Compound 49, N-((3-Methylisoxazol-5-yl)methyl)-N-(4-(2-hydroxylphenyl)thiazol-2-yl)acrylamide] | – | stability in 20% acetonitrile/PBS buffer solution [1]: good stability |
| C=CC(=O)N1CCC(c2ccccc2)CC1 [Compound 7, 1-(4-Phenylpiperidin-1-yl)prop-2-en-1-one] | did not possess significant GSTO1–1 binding activity | – |
| C=CC(=O)N1CCC(Cc2ccccc2)CC1 [Compound 8, 1-(4-Benzylpiperidin-1-yl)prop-2-en-1-one] | did not possess significant GSTO1–1 binding activity | – |
| C=CC(=O)Nc1cnn(-c2ccccc2)c1 [Compound 5, N-(1-Phenyl-1H-pyrazol-4-yl)acrylamide] | inactive | – |
| C=CC(=O)Nc1nc(-c2ccccc2OC)cs1 [Compound 26, N-(4-(2-Methoxyphenyl)thiazol-2-yl)acrylamide] | inactive | – |
| C=CC(=O)Nc1cnn(Cc2ccccc2)c1 [Compound 6, N-(1-Benzyl-1H-pyrazol-4-yl)acrylamide] | inactive | – |
